This is an account of results in patent US11332438B2, “Creatine prodrugs, compositions and methods of use thereof” (Ultragenyx Pharmaceutical Inc., priority 2017, dated 2022).

Molecules are shown by their SMILES. Some results are limits rather than exact numbers.

A short description of data set [1]: Chemical stability in simulated gastric fluid (SGF) without pepsin. Format: physicochemical. The conditions noted are these: 50 μM prodrug. The gist of the method:
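Incubations used 50 μM compound at 37 °C in phosphate buffered saline, fasted simulated intestinal fluid without pancreatin, or fasted simulated gastric fluid without pepsin.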

A short description of data set [2]: d3-Creatine and d3-creatinine concentration in CrT KO mice brain after IV bolus dose (FIGS. 3 and 4, Table 6). Format: in vivo. The following applies: CrT KO mice, 10 mg/kg IV, FIG. 4. The method, then: The brain concentrations of d3-creatine and d3-creatinine was measured in CrT KO mice following 10 mg/kg single dose IV bolus dose of compound 14 and 15 (FIGS. 3 and 4). As shown by FIG. 3, brain d3-creatine concentration was higher following administration of compound 15 compared to compound 14. […] Without bound to any theory, the macrocyclic compound 15 prodrug reduces d3-creatine cyclization to d3-creatinine when compared to linear compound 14 prodrug.
The concentration of d3-creatine in CrT KO mice brain were also measured for other compounds disclosed in the present application as shown in Table 6. The concentrations of d3-creatine, d3-creatinine and creatine prodrugs are measured by LC-MS/MS. The brain sample is homogenized with 4× (weight to volume) of KPI 100 mM buffer containing anti-proteases and anti-phosphatases (if needed). 50 μl of brain homogenate is then de-proteinized using 4× volume/volume of a solution containing 80% acetonitrile and 20% water with bucetin, d5-Cr (internal standard). The plate is then spun at 4000 rpm, 10 minutes, 4° C. and samples are transferred to a new plate for bioanalysis. Each analyte in each sample was quantitated against a curve in matching biomatrix using an authentic standard.

The nature of data set [3]: In vivo IV dosing in CrT KO mice: prodrug, d3-Cr and d3-Crn in brain (Table 5). The following applies: IV 10 mg/kg, CrT KO mouse brain; BQL prodrug = 41.2 ng/mL. The method, boiled down:
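CrT KO mice received prodrugs by IV injection at 10, 15 or 25 mg/kg. Brains were collected, flash frozen and homogenized in 100 mM KPI buffer with anti-proteases. Prodrug, d3-Cr and d3-Crn were quantified by LC-MS/MS and expressed as brain concentration (macrocycles) or AUC over time (linear prodrugs).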

Data set [4] is described as follows: Repeat dosing study, d3-creatine levels in non-human primate (NHP) brain (FIG. 2, Table 7). It counts as in vivo. The following applies: 7 infusions q.d., all brain regions tested. The procedure:
FIG. 2 is a graph of the data from a multi-dose study comparing d3-creatine and d3-creatinine levels in the brain of non-human primates, measured after a total of 7 infusions of compound 14 administered q.d. (once daily). Cr=d3-creatine; CRN=d3-creatinine.
Non-human primate (NHP) brains were dosed with Compound 8 (120 mg/kg) and Compound 14 (18 mg/kg) over a seven day period (i.v. infusion provide q.d.).

Data set [5] can be described thus: Single-dose study in CrT KO mice: creatine and creatinine in plasma and brain over 8 h (FIG. 1). It counts as in vivo. The procedure:
FIG. 1 is a graph of the data from a single-dose study comparing d3-creatine and d3-creatinine levels in the plasma and brain of CrT KO mice treated with compound 15 and measured over 8 h. Cr=d3-creatine; CRN=d3-creatinine.
The plasma and brain concentrations of creatine and creatinine was measured in CrT KO mice upon treatment with compound 15 (FIG. 1). […] The ratio of [creatine]Brain.[creatine]Plasma can be an useful parameter for a successful clinical development of creatine prodrugs for treating CTD and related conditions.

The subject of data set [6] is Phenocell CrT deficient neurons (iPSC-derived human neurons). Description: Creatine prodrug uptake and d3-creatine release in Phenocell CrT deficient neurons (Table 4B). It counts as cell-based. The following applies: 2 hours. The procedure:
Human neurons were obtained by differentiation of iPSC-derived neural stem cells for 14 days. The iPSCs were obtained from Phenocell Corporation. Neurons were cultured and differentiated to Day 10 and then frozen in liquid nitrogen. Neurons were thawed and replated at 1×10^6 per well of viable cells on poly-ornithine/laminin coated plates in 2 ml medium per well. Differentiation in complete Neurol medium with 2 ng/ml FGF2 was carried out for 4 additional days with a complete medium change (90% of medium) on Day 12. Activin A (20 ng/ml final conc.) was spiked into the cultures on Day 11 and Day 13. […] In parallel, compounds were incubated in medium alone to assess chemical stability of parent prodrug and metabolites. At the end of the 2 hour incubation, supernatants were collected and frozen at −80 C. Neurons in 6 well plates were washed gently 3× with HBSS and frozen at −80° C. Cell lysates were obtained by addition of 130 μl/well 10 mM Tris pH 7.4 with complete Mini protease inhibitors and scraping of wells. Plates were kept on ice during processing. Lysates were homogenized by hand briefly with a green pestle in 1.5 ml centrifuge tubes and then vortexed at high speed for 5 seconds. Lysates were centrifuged at 13,000 g, 10 minutes, 4 C and supernatants (cytosol fraction) were transferred in a new tube. A crash solution constituted of 80% acetonitrile and 20% water with bucetin, d5-Cr (internal standard) was added at 4:1 volume to volume to 50 ul of all samples for a total volume of 250 μL. Then plate was spun at 4000 rpm, 10 minutes, […] Samples were transferred to a new plate and frozen at −80 C prior to analysis by LC-MS/MS (Table 4B).

Data set [7] is described as follows: Liver microsome stability, mouse. Format: in vitro ADME. The following applies: liver microsomes, pH 7.4, Table 2C, read-out: Microsome Stability Mouse t1/2. The method, boiled down:
(§1)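 Test compound incubated with mouse or human liver microsomes and NADPH in 0.1 M potassium phosphate, 1.0 mM EDTA, pH 7.4, with a 60-min no-NADPH control. Samples quenched with ACN containing internal standard at 0, 5, 10, 20, 30 and 60 min, then analysed by LC/MS.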

Data set [8] is described as follows: Liver microsome stability, human. The conditions noted are these: liver microsomes, pH 7.4, Table 2C, read-out: Microsome Stability Human t1/2. It counts as in vitro ADME. The method, boiled down:
as §1
Background: Microsomes from liver hold many membrane-bound enzymes, among them those of drug oxidation.

As to `Cl.[2H]C([2H])([2H])N(CC(=O)OCCCCCCC)C(=N)NC(=O)CCCCCC` [Compound 14], the “Chemical Stability SGF, no enzyme % T0 at 2 hours at 37 °C.” value in data set [1] (Table 2A) is given as 80%. Also, the “brain concentration of d3-creatinine, compound 14 versus compound 15” value in data set [2] was “not significantly different”. Moreover, the “AUClast prodrug in the brain” value in data set [3] is recorded as “BQL”. For the same molecule, the “d3-creatine (d3-Cr) levels in NHP brain on repeat administration (in words)” value in data set [4] is reported as “dramatically increases”.
`Cl.[2H]C([2H])([2H])N1CC(=O)OCCCCCCCCCCC(=O)NC1=N` [Compound 15, 5-imino-4-trideuteriomethyl-1-oxa-4,6-diazacycloheptadecane-2,7-dione Hydrochloride]: the “Chemical Stability SGF, no enzyme % T0 at 2 hours at 37 °C.” value in data set [1] (Table 2C) is 97%. Moreover, in data set [2], the “brain concentration of d3-creatinine, compound 14 versus compound 15” value is listed as “not significantly different”. In data set [5], the “creatine levels compared to creatinine (CRN) levels” value was “higher than creatinine (CRN) levels”. Further, the “brain creatine (Cr) concentration compared to plasma” value in data set [5] (measured over 8 h) is “higher than the concentration in plasma”. Also, the “Prodrug concentration in the cell cytosol” value is recorded as “BLOQ” in data set [6] (Study No. 2, 100 μM) and “BLOQ” in data set [6] (Study No. 2, 500 μM). The “d3-Creatine concentration in the cell cytosol” value in data set [6] (Study No. 2, 100 μM) was “BLOQ”. For the same molecule, the half-life at 10 μM in data set [7] and in data set [8] was below 5 min each time.
